Experimental data as given in ChEMBL document CHEMBL5360554, “Optimization of the C2 substituents on the 1,4-bis(arylsulfonamido)naphthalene-N,N'-diacetic acid scaffold for better inhibition of Keap1-Nrf2 protein-protein interaction” (Eur J Med Chem, 2023).
The source made the active and inactive calls. The rule behind the calls is not given here.

Tests used:
[1] = molecular target: T1, Keap1/Nrf2 (Homo sapiens, UniProt Q14145); test: Inhibition of Keap1-Nrf2 protein-protein interaction (unknown origin) preincubated for 30 mins followed by Terbium labeled anti-His antibody addition for 30 mins prior to fluorescein labeled-9mer Nrf2 peptide addition and measured after 60 mins by TR-FRET assay
T1 sequence (Q16236 whole entry): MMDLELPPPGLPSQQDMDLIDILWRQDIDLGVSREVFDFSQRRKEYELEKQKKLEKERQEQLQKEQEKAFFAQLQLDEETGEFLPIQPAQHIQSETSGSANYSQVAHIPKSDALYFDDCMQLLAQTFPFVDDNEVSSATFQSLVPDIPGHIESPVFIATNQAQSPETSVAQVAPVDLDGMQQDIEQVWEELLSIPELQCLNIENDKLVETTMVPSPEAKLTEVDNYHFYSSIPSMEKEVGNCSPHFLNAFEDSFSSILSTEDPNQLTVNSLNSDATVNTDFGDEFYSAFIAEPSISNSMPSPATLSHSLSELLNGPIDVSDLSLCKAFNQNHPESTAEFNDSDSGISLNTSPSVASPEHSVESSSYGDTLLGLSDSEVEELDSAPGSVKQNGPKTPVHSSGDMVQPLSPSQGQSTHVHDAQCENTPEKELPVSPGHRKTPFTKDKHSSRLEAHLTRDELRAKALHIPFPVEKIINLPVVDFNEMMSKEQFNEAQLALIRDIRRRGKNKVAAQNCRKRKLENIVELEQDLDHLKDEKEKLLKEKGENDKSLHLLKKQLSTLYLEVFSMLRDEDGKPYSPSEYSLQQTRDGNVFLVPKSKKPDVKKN
T1 sequence (Q14145 whole entry): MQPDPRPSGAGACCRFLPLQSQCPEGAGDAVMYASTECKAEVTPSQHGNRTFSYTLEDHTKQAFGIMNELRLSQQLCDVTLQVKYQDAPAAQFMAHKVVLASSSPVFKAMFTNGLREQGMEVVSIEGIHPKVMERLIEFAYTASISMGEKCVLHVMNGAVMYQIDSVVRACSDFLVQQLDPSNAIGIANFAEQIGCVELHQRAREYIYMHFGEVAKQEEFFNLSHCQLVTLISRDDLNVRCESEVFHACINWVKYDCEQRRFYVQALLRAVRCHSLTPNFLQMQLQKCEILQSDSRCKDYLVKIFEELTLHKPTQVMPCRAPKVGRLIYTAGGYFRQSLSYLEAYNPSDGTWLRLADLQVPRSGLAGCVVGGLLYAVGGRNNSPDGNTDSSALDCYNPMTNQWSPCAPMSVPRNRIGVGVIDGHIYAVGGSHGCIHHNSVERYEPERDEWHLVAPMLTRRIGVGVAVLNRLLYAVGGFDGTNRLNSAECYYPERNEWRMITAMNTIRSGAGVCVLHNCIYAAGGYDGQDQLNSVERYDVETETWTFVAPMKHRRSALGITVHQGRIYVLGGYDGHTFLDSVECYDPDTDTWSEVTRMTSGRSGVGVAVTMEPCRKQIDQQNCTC

[2] = molecular target: T1, Keap1/Nrf2; test: Inhibition of Keap1-Nrf2 protein-protein interaction (unknown origin) incubated for 34 mins by fluorescence polarization assay
[3] = molecular target: T2, Keap1/Nrf2 (Homo sapiens) (UniProt Q16236+Q14145); test: Inhibition of Keap1-Nrf2 protein-protein interaction in human NCM460D cells assessed as increase in HMOX1 gene expression at 100 uM by RT-qPCR analysis; format: cell-based
T2 sequence (Q14145 whole entry, looked up): as the sequence (Q14145 whole entry) above
T2 sequence (Q16236 whole entry, looked up): as the sequence (Q16236 whole entry) above

[4] = molecular target: T2, Keap1/Nrf2 (Homo sapiens); test: Inhibition of Keap1-Nrf2 protein-protein interaction in human NCM460D cells assessed as increase in GSTM3 gene expression at 100 uM by RT-qPCR analysis; format: cell-based
[5] = molecular target: T2, Keap1/Nrf2 (Homo sapiens); test: Inhibition of Keap1-Nrf2 protein-protein interaction in human NCM460D cells assessed as increase in NQO1 gene expression at 100 uM by RT-qPCR analysis; format: cell-based
[6] = molecular target: T2, Keap1/Nrf2 (Homo sapiens); test: Inhibition of Keap1-Nrf2 protein-protein interaction in human NCM460D cells assessed as fold increase in GSTM3 gene expression at 10 uM by RT-qPCR analysis; format: cell-based
[7] = molecular target: T2, Keap1/Nrf2 (Homo sapiens); test: Inhibition of Keap1-Nrf2 protein-protein interaction in human NCM460D cells assessed as fold increase in HMOX1 gene expression at 10 uM by RT-qPCR analysis; format: cell-based
[8] = molecular target: T2, Keap1/Nrf2 (Homo sapiens); test: Inhibition of Keap1-Nrf2 protein-protein interaction in human NCM460D cells assessed as fold increase in NQO1 gene expression at 10 uM by RT-qPCR analysis; format: cell-based
[9] = molecular target: T2, Keap1/Nrf2 (Homo sapiens); test: Inhibition of Keap1-Nrf2 protein-protein interaction in human NCM460D cells assessed as fold increase in GSTM3 gene expression at 100 uM by RT-qPCR analysis; format: cell-based
[10] = molecular target: T2, Keap1/Nrf2 (Homo sapiens); test: Inhibition of Keap1-Nrf2 protein-protein interaction in human NCM460D cells assessed as fold increase in HMOX1 gene expression at 100 uM by RT-qPCR analysis; format: cell-based
[11] = molecular target: T2, Keap1/Nrf2 (Homo sapiens); test: Inhibition of Keap1-Nrf2 protein-protein interaction in human NCM460D cells assessed as fold increase in NQO1 gene expression at 100 uM by RT-qPCR analysis; format: cell-based

SMILES	IC50 [1] [nM]	Ki [1] [nM]	IC50 [2] [nM]	HMOX1 gene expression increase (active/not active) [3]	inhibition [4]	inhibition [5]	fold change (FC) [6]	fold change (FC) [7]	fold change (FC) [8]	fold change (FC) [9]	fold change (FC) [10]	fold change (FC) [11]
COc1ccc(S(=O)(=O)N(CC(=O)O)c2cc(CCCN(C)Cc3ccccc3)c(N(CC(=O)O)S(=O)(=O)c3ccc(OC)cc3)c3ccccc23)cc1	73.6	32.9	–	–	–	–	–	–	–	–	–	–
COc1ccc(S(=O)(=O)N(CC(=O)O)c2cc(CCC(=O)NC(C)C)c(N(CC(=O)O)S(=O)(=O)c3ccc(OC)cc3)c3ccccc23)cc1	12.6	4.6	102	–	–	–	–	–	–	–	–	–
COc1ccc(S(=O)(=O)N(CC(=O)O)c2cc(Sc3ccccc3)c(N(CC(=O)O)S(=O)(=O)c3ccc(OC)cc3)c3ccccc23)cc1	5.8	1.5	85	–	–	–	–	–	–	–	–	–
COc1ccc(S(=O)(=O)N(CC(N)=O)c2cc(CCC(=O)O)c(N(CC(N)=O)S(=O)(=O)c3ccc(OC)cc3)c3ccccc23)cc1	22.7	9.3	162	–	–	–	–	–	–	–	–	–
COc1ccc(S(=O)(=O)N(CC(=O)O)c2cc(CCC(=O)N3CCOCC3)c(N(CC(=O)O)S(=O)(=O)c3ccc(OC)cc3)c3ccccc23)cc1	6.9	2	87	Active	Active	Active	–	–	–	–	–	–
COc1ccc(S(=O)(=O)N(CC(=O)O)c2cc(-c3ccc(C#N)cc3)c(N(CC(=O)O)S(=O)(=O)c3ccc(OC)cc3)c3ccccc23)cc1	9.2	3.1	117	inactive	inactive	inactive	–	–	–	–	–	–
COc1ccc(S(=O)(=O)N(CC(=O)O)c2cc(-c3ccc(N4C(=O)c5ccccc5C4=O)cc3)c(N(CC(=O)O)S(=O)(=O)c3ccc(OC)cc3)c3ccccc23)cc1	7.1	2.1	90	Active	Active	Active	3	3	3	–	–	–
COc1ccc(S(=O)(=O)N(CC(=O)O)c2cc(-c3ccccc3)c(N(CC(=O)O)S(=O)(=O)c3ccc(OC)cc3)c3ccccc23)cc1	7.7	2.4	96	–	–	–	–	–	–	–	–	–
COc1ccc(S(=O)(=O)N(CC(=O)O)c2cc(CCCN3C(=O)c4ccccc4C3=O)c(N(CC(=O)O)S(=O)(=O)c3ccc(OC)cc3)c3ccccc23)cc1	2.5	< 0.1	77	Active	Active	Active	3	3	3	–	–	–
COc1ccc(S(=O)(=O)N(CC(=O)O)c2cc(CCC(N)=O)c(N(CC(=O)O)S(=O)(=O)c3ccc(OC)cc3)c3ccccc23)cc1	11.7	4.2	108	–	–	–	–	–	–	–	–	–
COc1ccc(-c2cc(N(CC(=O)O)S(=O)(=O)c3ccc(OC)cc3)c3ccccc3c2N(CC(=O)O)S(=O)(=O)c2ccc(OC)cc2)cc1	13.1	4.9	85	Active	Active	Active	–	–	–	8	8	8
